Measurements reported in patent EP1785417A2, “Novel non-psychotropic cannabinoids” (priority 2000, dated 2001).
Read-outs that look alike come from different tables or passages of the source.

Legend:
[1] = system: transient middle cerebral artery occlusion in rats; experiment: Transient middle cerebral artery occlusion (MCAo), infarct size evaluation; assay type: in vivo; conditions: IV, one week after the ischemic insult
Excerpt: Experimental design. The design was a randomized one, performed in a masked fashion as to whether drug or vehicle was being given, and an attempt was made to generate approximately equal numbers of drug- and vehicle-treated animals.
• a. Male rats (8 /treatment group) 320-380 gr. (Harlan Israel). • b. Halothane (Rhone Poulenc France) • c. Pentobarbitone (Pental Veterinary, CTS Israel). • d. Poly - L - Lysine (Sigma, USA). • e. Silk suture material 3-0 and 4-0. • f. Nylon (Polyamid) suture material 3-0. Four cm pieces were cut and positioned in a solution of 1% Poly - L - Lysine for 1 minute and dried in an oven (60 ° C) for 60 minutes. The tip of each piece was rounded under a flame. • g. Saline (Teva Medical). • h. Blank cremophor ethanol cosolvent (Pharmos). • i. Dexanabinol in cremophor ethanol cosolvent 50 mg/ml. (Both Dexanabinol and its vehicle were diluted in saline prior to drug administration. • j. Analogs PRS-211,092, PRS-211,095, PRS-211,128 PRS-211,132 and PRS-211,220 in cremophor ethanol cosolvent, 50 mg/ml. • k. The analogs were diluted in saline prior to drug administration.
• a. Surgical details of the MCAo method used for testing dexanabinol analogs, are presented in Belayev, et al., (Belayev, Busto, Weizhao, and Ginsberg, Stroke 26:2313-2319, 1995) which is incorporated herein in its entirety by reference. • b. Two hours after the start of MCAO, the animals were reanesthetized with halothane, the neck wound was re-opened and the nylon thread pulled out of the Internal carotid artery (ICA). The skin wound was then closed with 3-0 silk suture material and the animals allowed to recover from the anesthesia. • c. Three sets of animals were tested. In the first test immediately (2+0 hours) before thread removal the animals were injected IV with either analogs PRS-211,095, PRS-211,128, PRS-211,132, or Dexanabinol (PRS-211,007) each at a dosage of 5 mg/kg. One group of animals was treated with 5ml/kg vehicle alone. In another group, the animals subjected to "sham" operation, the suture was passed into the ICA, as described above, but immediately withdrawn. In the second set dexanabinol, PRS-211,092, PRS-211,095 and PRS-211,220 were used, at 2+0 hours. In the third set dexanabinol, PRS-211,092, PRS-211,095 and PRS-211,220 were administered 1 hour after thread removal (2+1 hours). Laser Doppler Flow (LDF) determined the success of MCAo - a drop of more then 50% in cerebral blood flow was considered as a sign of successful MCAo. Although LDF was a helpful corroborative sign, clinical outcome remained the final inclusion/exclusion criterion, since, with the exception of the PRS-211,220 staircase study, LDF was introduced only after initiation of the study.
A detailed investigation of neurological performance was carried out on the first, third and the 7th day after the MCAo. Two parameters were examined: posture and the flexion reflex (based on Nokon and Chuang, NeuroReport 9, 1998: 2081-2084). Animals were scored according to their performance:
One week after the ischemic insult, animals were euthanized with pentobarbitone 100 mg/kg IP. The animals were perfused through the heart with heparinized 4% formaldehyde solution in PBS (pH 7.4). Brains were then removed, and kept in the same solution before preparation for histological evaluation of the brain infarct volume.

TNFα = experiment: Inhibition of TNFα in LPS-stimulated macrophage cell cultures (ELISA); assay type: cell-based; conditions: LPS-stimulated macrophages
Excerpt: (§1) Evaluation of the therapeutic effects of the novel PRS-211 compounds has now been carried out in a series of experimental systems to support the utility of these drugs as neuroprotectants, anti-inflammatory agents and anti-oxidative agents. These effects have been evaluated both in vitro and in vivo, and have been corroborated utilizing the following systems: • (a) Binding to the NMDA receptor linked channel: Non competitive antagonists of NMDA, the primary example of which is the compound MK-801, bind to a site within the NMDA receptor channel thus preventing the activation of the receptor-channel complex and the consequent neurotoxicity. The ability of various compounds to compete with the binding of tritium labeled MK-801 to brain membranes is considered a measure of their potency as NMDA non-competitive antagonists. • (b) Inhibition of prostaglandin production: The inhibitory effect of the new derivatives of Dexanabinol on prostaglandin synthesis is evaluated in macrophage cell cultures following LPS exposure to induce the inflammatory response. These assays are an indication of the anti-inflammatory activity of the individual analogs. • (c) Inhibition of Tumor Necrosis Factor Alpha: Specific aspects of the inflammatory response cascade are mediated by the cytokine TNFα. Inhibition of TNFα production and/or inhibition of TNFα release by the new analogs are assayed in macrophage cell cultures activated with LPS. This serves as another indication of the general anti-inflammatory potential of the novel compounds. • (d) Nitric Oxide Assay: As one aspect of the anti-oxidative potential of the novel analogs they were tested for their ability to inhibit the enzyme nitric oxide synthase (NOS). This assay can also serve as another indication of the anti-inflammatory cascade, as well as the anti-oxidative mechanisms. • (e) Ear Edema model: The anti-inflammatory activity of the new analogs is screened using an ear edema model in mice. This test system utilizes Croton oil or Arachidonic acid as inflammation inducers. The ability of the test compounds to prevent or diminish the inflammatory response to these stimulants is indicative of their systemic anti-inflammatory capability. • (f) Improved clinical outcome after closed head injury in rats: Severe head injury is associated with high mortality and severe neurological impairment. Animals subjected to head trauma in a controlled fashion serve as models in which to test drugs of therapeutic potential. Test compounds can be evaluated both for improved clinical outcome and for reduction of edema induced by closed head injury. The ability of compounds to reduce the severity of neurological symptoms and to reduce brain edema is considered a measure of their potency in reducing brain damage. • (g) Transient Middle cerebral artery occlusion (MCAo): The middle cerebral artery is the cerebral blood vessel most susceptible to stroke in humans. In animals, coagulation, permanent ligation or permanent placement of an occluding thread in the artery produces a permanent focal stroke affecting the MCA territory. Transient ligation or occlusion results in transient focal stroke. Both transient and permanent focal strokes result in varying degrees of edema and infarction in the affected brain regions. The ability of compounds to reduce the volumes of edema and infarction is considered a measure of their potential as anti-stroke treatment. • (h) Optic Nerve Crush: Application of mechanical pressure to the rat optical nerve results in crush injury of the axons, which is accompanied by immediate changes in oxidative metabolism and delayed axonal death and blindness. […]

[2] = system: Nitric Oxide Synthase (NOS); experiment: Inhibition of nitric oxide synthase (nitrite fluorimetric assay, LPS-stimulated macrophage cultures); assay type: cell-based; conditions: LPS-stimulated macrophages
Excerpt: as §1

ear edema model in mice = experiment: Ear edema model; assay type: in vivo; conditions: Mus musculus, Croton oil (CO) as inducer, IP
Excerpt: as §1

[3] = system: rat model of myocardial ischemia; experiment: Rat model of myocardial ischemia and reperfusion; assay type: in vivo, rats; conditions: given 15 minutes before occlusion; 45 minutes occlusion, 4 hours reperfusion; versus vehicle
NMDA receptor = experiment: Radioligand binding: displacement of [3H]MK-801 from rat forebrain membranes; conditions: for NMDA receptor binding / affinity: MK-801 binding to membranes
Excerpt: as §1

PGE2 = experiment: Inhibition of prostaglandin synthesis (PGE2) in LPS-stimulated macrophage cell cultures; assay type: cell-based; conditions: LPS-stimulated macrophages
Excerpt: as §1

transient MCAo in rats = experiment: Transient MCAo evaluated by the staircase test; assay type: in vivo
Procedure: The materials for this procedure are identical to those from Physiological Example 5, except for the different concentrations of PRS-211,095. The procedural differences are as follows: • Male Sprague Dawley rats, 230-270 gr (Harlan, Israel) were used. The following compounds and their respective concentrations were tested: • Dexanabinol and analogs PRS-211,095 and PRS-211,220 in PEG ethanol cosolvent 50 mg/ml. Dexanabinol, the analogs and their vehicle were diluted in Intralipid® 20% (Pharmacia) prior to drug administration.
The procedure is essentially as described in Montoya et al. (Montoya, Campbell-Hope, Pemberton and Dunnet, J. Neurosci. Meth. 36:219-228, 1991) Animals were kept under mild food deprivation for 3-5 days, receiving 15-gr. food once a day (between 16:00 and 17:00) and free access to water. Animals were trained prior to the test for 3-5 days according to the protocol of Sharkey et. al. (Sharkey, Crawford, Butcher and Martson, Stroke 27:2282-2286, 1996).
In brief, the staircase box contains two rows of seven stairs in each. Two 45 mg food pellets were placed on each step. Animals were placed in the box for 15 minutes sessions. At the end of the session the number of eaten (grasped) and displaced pellets was counted and recorded. Animals were tested twice a day, 4 hours apart. The first session was performed between 8-9 AM and second between 12-13 PM. The animals were trained until they grasped (ate) at least 8 pellets from each set of stairs for two consecutive sessions. Up to one week after the end of the successful training session the animals underwent transient MCAo. Transient MCAo was performed in essentially the same manner as described in Physiological example 5 with the following modification at step i: • Two minutes prior to thread removal rats were re-anesthetized and administered IV with Dexanabinol 5mg/kg, analogs PRS-211,220 or PRS-211,095 at 0.5, 2.5, 5 or 10 mg/kg or vehicle 5 ml/kg. One additional group was sham-treated.
(§2) Animals were allowed to recover from the surgery for five days. The mild food deprivation was re-employed during the days following the ischemic insult. They were tested in the staircase box using the above method for 9-12 days. Animals were weighed twice a week during this period.
At the end of the evaluation period, animals were euthanized with pentobarbitone 100 mg/kg IP. The animals were perfused through the heart with heparinized 4% formaldehyde solution in PBS (pH 7.4). Brains were then removed, and kept in the same solution for at least 24h. Then the brains - from the rostral side of the cortex to the cerebellum- were sunk in 30% sucrose in PBS, cryosectioned (20 µm), dried and stained with thionin for histological evaluation of the brain infarct volume. Eight sections at the levels of: 3.3;+2.8;+1.8; +0.8; -0.4;-1.4; -2.2; and -3.4 from Bregma were measured (Swanson, Rat Brain Atlas, 1992). Sections were captured by a CCD camera (V-tech MP-470) and image analyzed (Scion image 1.62A). Infarct size was determined from the series of the 8 sections by either calculation of the infarct volume (mm3) by summing the series of mean lesion areas of two adjacent sections multiplied by the distance between them or calculation of the mean infarct size as percentage of the contralateral hemisphere size; calculation of the mean of the surviving ipsilateral side as percentage of the contralateral hemisphere size; calculation of the mean ipsilateral side ventricle as percentage of the contralateral hemisphere ventricle.
• a. The infarct size was compared using ANOVA (analysis of variance) followed by Duncan's post hoc test. • b. […]

[4] = Body weight gain during staircase testing after transient MCAo; assay type: in vivo, rats; conditions: compared to base line
Procedure: as §2
Animals were kept under mild food deprivation during the staircase testing (except during weekends). Under these conditions, the following results were observed: • Sham and PRS-211,095 10 mg/kg treated rats gained the maximal body weight (15 and 17% respectively compared to base line). […] These differences were not statistically different.

[5] = displacement of [3H]MK-801, rat forebrain membranes, read-out: NMDA BINDING IC50

## CCCCCCC(C)(C)c1cc(O)c2c(c1)OC(C)(C)[C@H]1CC=C(CSc3ncc[nH]3)C[C@H]21 (single isomer, unassigned) [211,092-000]
[1]
  reduction of infarct size: 52%
TNFα
  inhibition at 10 µM: 22%
[2]
  inhibition at 10 µM: 0%
Ear edema model in mice
  ED50: 28 µmol/kg
[3]
  infarct size (AN/AR, AN/LV): clear decrease in infarct size
NMDA receptor
  NMDA receptor binding / affinity: low affinity
NMDA receptor; [5]
  IC50: > 50000 nM
PGE2
  inhibition at 10 µM: 57%

## CCCCCCC(C)(C)c1cc(O)c2c(c1)OC(C)(C)[C@H]1CC=C(Cn3cccn3)C[C@H]21 [211,220-000, (+)-(3S,4S)-6,6-Dimethyl-(1,1-dimethylheptyl)-1-hydroxy-9-(pyrazolomethyl)-6a,7,10,10a-tetrahydro-6H-dibenzo[b,d]pyran]
TNFα
  inhibition at 10 µM: 11%
[2]
  inhibition at 10 µM: 11%
Ear edema model in mice
  ED50: 57 µmol/kg
Transient MCAo in rats; 0.1 mg/kg, contralateral
  pellet consumption, improvement over vehicle: 20-30%
Transient MCAo in rats; 0.5 mg/kg, contralateral, p<0.05
  pellet consumption, improvement relative to vehicle alone: > 60%
Transient MCAo in rats; 0.5 mg/kg, session 3 of the staircase
  potency relative to PRS-211,095 and dexanabinol: at least 10 times
Transient MCAo in rats; 2.5 mg/kg, contralateral
  pellet consumption, improvement over vehicle: 20-30%
Transient MCAo in rats; 5.0 mg/kg, contralateral
  pellet consumption, improvement over vehicle: 20-30%
Transient MCAo in rats; Table 5, 0.1 mg/kg IV
  Mortality Rate(%): 25%
  No. Dead Animals: 4
Transient MCAo in rats; Table 5, 0.5 mg/kg IV
  Mortality Rate(%): 18.75%
  No. Dead Animals: 3
Transient MCAo in rats; Table 5, 2.5 mg/kg IV
  Mortality Rate(%): 30.7%
  No. Dead Animals: 4
Transient MCAo in rats; Table 5, 5 mg/kg IV
  Mortality Rate(%): 14%
  No. Dead Animals: 2
[4]; 0.1 mg/kg
  body weight gain: 3%
[4]; 0.5 mg/kg
  body weight gain: 10%
[4]; 2.5 mg/kg
  body weight gain: 5%
[4]; 5 mg/kg
  body weight gain: 4%
NMDA receptor
  NMDA receptor binding / affinity: relatively high affinity
NMDA receptor; [3H]MK-801 binding, text to Figure 2, read-out: mean IC50
  IC50: 350 nM
NMDA receptor; [5]
  IC50: 350 nM
PGE2
  inhibition at 10 µM: 47%
